Laboratory results taken from the supplement of paper PMC6045584.
± gives the standard deviation of the averaged measurements.

Each test system was assayed with O=C(O)C1(C(=O)O)CCC1.[NH2-].[NH2-].[Pt+2] [CARBOPLATIN] (assay: surviving fraction relative to DMSO-only wells; higher = less growth inhibition). Settings: 10 nM; exposure time: 5 days.
Procedure, shortened: (§1)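 Five days of continuous inhibitor exposure, at 0.5, 1, 5, 10, 50, 100, 500 and 1000 nM, followed a 24-hour period after log-phase tumour cell lines were seeded at 250–500 cells per well in 384-well plates. Surviving fraction was derived from CellTiter-Glo luminescence relative to the median of DMSO-only wells. Plates were read after 10 minutes at room temperature, and lines screened three times were kept only if replicate Pearson r >0.7 and median Z' >0.3.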
Work on JIMT1 BREAST yielded a surviving fraction of 0.969 ± 0.015.
For CAL72 BONE, the surviving fraction was 1.06 ± 0.052.
G292 BONE showed a surviving fraction of 1.05 ± 0.015.

Same assay, conditions: 50 nM; exposure time: 5 days
SCC36 HEADNECK showed a surviving fraction of 1.06 ± 0.17.
In the case of JIMT1 BREAST, the surviving fraction is reported as 1.09 ± 0.036.
With CAL72 BONE the surviving fraction was 1.12 ± 0.084.
In the case of G292 BONE, the surviving fraction is reported as 1.04 ± 0.064.

Same assay, conditions: 100 nM; exposure time: 5 days
SCC36 HEADNECK gave a surviving fraction of 1.04 ± 0.078.
JIMT1 BREAST showed a surviving fraction of 0.949 ± 0.06.
For CAL72 BONE, the surviving fraction was 1.03 ± 0.23.
For G292 BONE, the surviving fraction was 1.04 ± 0.029.

Same assay, conditions: 500 nM; exposure time: 5 days
With SCC36 HEADNECK the surviving fraction was 1.05 ± 0.031.
JIMT1 BREAST showed a surviving fraction of 1.03 ± 0.031.
CAL72 BONE showed a surviving fraction of 1.1 ± 0.11.
Work on G292 BONE yielded a surviving fraction of 1.01 ± 0.021.

Same assay, conditions: 1000 nM; exposure time: 5 days
In the case of SCC36 HEADNECK, the surviving fraction is reported as 0.85 ± 0.12.
JIMT1 BREAST showed a surviving fraction of 0.95 ± 0.07.
With CAL72 BONE the surviving fraction was 1.01 ± 0.15.
Work on G292 BONE yielded a surviving fraction of 1.03 ± 0.064.

These test systems were tested with CC(=O)NCC(=O)N1[C@@H]2CC[C@H]1c1ccc(Nc3ncc(C(F)(F)F)c(NC4CCC4)n3)cc12 in the same assay as above. Settings: 0.5 nM; exposure time: 5 days.
Procedure, shortened: as §1
SCC36 HEADNECK gave a surviving fraction of 1.01 ± 0.1.
JIMT1 BREAST was tested, and the surviving fraction was 0.996 ± 0.044.
In the case of CAL72 BONE, the surviving fraction is reported as 1.06 ± 0.039.
Work on G292 BONE yielded a surviving fraction of 0.997 ± 0.043.

Same assay, conditions: 1 nM; exposure time: 5 days
In the case of SCC36 HEADNECK, the surviving fraction is reported as 1.04 ± 0.15.
For JIMT1 BREAST, the surviving fraction was 1.01 ± 0.032.
Test System CAL72 BONE has a surviving fraction of 1.09 ± 0.051.
Test System G292 BONE has a surviving fraction of 0.968 ± 0.052.

Same assay, conditions: 5 nM; exposure time: 5 days
SCC36 HEADNECK showed a surviving fraction of 1.13 ± 0.16.
JIMT1 BREAST showed a surviving fraction of 1 ± 0.036.
For CAL72 BONE, the surviving fraction was 1.12 ± 0.057.
G292 BONE was tested, and the surviving fraction was 0.999 ± 0.025.

Same assay, conditions: 10 nM; exposure time: 5 days
Work on SCC36 HEADNECK yielded a surviving fraction of 1.12 ± 0.066.
JIMT1 BREAST was tested, and the surviving fraction was 0.97 ± 0.02.
Work on CAL72 BONE yielded a surviving fraction of 1.04 ± 0.011.
Work on G292 BONE yielded a surviving fraction of 0.949 ± 0.015.

Same assay, conditions: 50 nM; exposure time: 5 days
SCC36 HEADNECK gave a surviving fraction of 0.945 ± 0.12.
JIMT1 BREAST was tested, and the surviving fraction was 1.03 ± 0.053.
CAL72 BONE gave a surviving fraction of 0.917 ± 0.032.
With G292 BONE the surviving fraction was 0.59 ± 0.028.

Same assay, conditions: 100 nM; exposure time: 5 days
SCC36 HEADNECK gave a surviving fraction of 0.731 ± 0.052.
Test System JIMT1 BREAST has a surviving fraction of 0.763 ± 0.024.
In the case of CAL72 BONE, the surviving fraction is reported as 0.846 ± 0.022.
G292 BONE gave a surviving fraction of 0.485 ± 0.017.

Same assay, conditions: 500 nM; exposure time: 5 days
In the case of SCC36 HEADNECK, the surviving fraction is reported as 0.428 ± 0.048.
JIMT1 BREAST was tested, and the surviving fraction was 0.705 ± 0.0076.
CAL72 BONE was tested, and the surviving fraction was 0.571 ± 0.025.
G292 BONE was tested, and the surviving fraction was 0.181 ± 0.0022.

Same assay, conditions: 1000 nM; exposure time: 5 days
For SCC36 HEADNECK, the surviving fraction was 0.431 ± 0.051.
JIMT1 BREAST gave a surviving fraction of 0.593 ± 0.029.
Work on CAL72 BONE yielded a surviving fraction of 0.419 ± 0.026.
G292 BONE was tested, and the surviving fraction was 0.087 ± 0.001.

These test systems were tested with C[C@]1(O)C[C@@H](c2nc(-c3ccc4ccc(-c5ccccc5)nc4c3)c3c(N)nccn32)C1 [OSI-906] in the same assay as above. Settings: 0.5 nM; exposure time: 5 days.
Procedure, shortened: as §1
With SCC36 HEADNECK the surviving fraction was 0.783 ± 0.039.
With JIMT1 BREAST the surviving fraction was 0.921 ± 0.029.
In the case of CAL72 BONE, the surviving fraction is reported as 1.009 ± 0.006.
For G292 BONE, the surviving fraction was 0.923 ± 0.032.

Same assay, conditions: 1 nM; exposure time: 5 days
In the case of SCC36 HEADNECK, the surviving fraction is reported as 0.816 ± 0.062.
In the case of JIMT1 BREAST, the surviving fraction is reported as 0.892 ± 0.02.
Test System CAL72 BONE has a surviving fraction of 1 ± 0.018.
Test System G292 BONE has a surviving fraction of 0.929 ± 0.035.

Same assay, conditions: 5 nM; exposure time: 5 days
With SCC36 HEADNECK the surviving fraction was 0.796 ± 0.083.
JIMT1 BREAST showed a surviving fraction of 0.92 ± 0.063.
For CAL72 BONE, the surviving fraction was 0.998 ± 0.049.
G292 BONE was tested, and the surviving fraction was 0.929 ± 0.04.

Same assay, conditions: 10 nM; exposure time: 5 days
Test System SCC36 HEADNECK has a surviving fraction of 0.805 ± 0.055.
In the case of JIMT1 BREAST, the surviving fraction is reported as 0.926 ± 0.03.
CAL72 BONE was tested, and the surviving fraction was 0.966 ± 0.058.
Test System G292 BONE has a surviving fraction of 0.919 ± 0.034.

Same assay, conditions: 50 nM; exposure time: 5 days
SCC36 HEADNECK showed a surviving fraction of 0.742 ± 0.076.
Test System JIMT1 BREAST has a surviving fraction of 1.02 ± 0.039.
For CAL72 BONE, the surviving fraction was 1 ± 0.038.
In the case of G292 BONE, the surviving fraction is reported as 0.728 ± 0.059.

Same assay, conditions: 100 nM; exposure time: 5 days
With SCC36 HEADNECK the surviving fraction was 0.834 ± 0.066.
JIMT1 BREAST showed a surviving fraction of 1.08 ± 0.094.
With CAL72 BONE the surviving fraction was 0.98 ± 0.028.
Test System G292 BONE has a surviving fraction of 0.624 ± 0.021.

Same assay, conditions: 500 nM; exposure time: 5 days
For SCC36 HEADNECK, the surviving fraction was 0.64 ± 0.19.
For JIMT1 BREAST, the surviving fraction was 1.02 ± 0.077.
For CAL72 BONE, the surviving fraction was 0.893 ± 0.048.
Test System G292 BONE has a surviving fraction of 0.579 ± 0.04.

Same assay, conditions: 1000 nM; exposure time: 5 days
With SCC36 HEADNECK the surviving fraction was 0.57 ± 0.046.
For JIMT1 BREAST, the surviving fraction was 1.02 ± 0.046.
